{"source": "patent US11951100B2", "about": "“Formulations of RBP4 inhibitors and methods of use” (Belite Bio, LLC, priority 2019, dated 2024)", "origin": "cited, not measured here", "details": "sub-population with significant RBP4 lowering; cited from earlier work", "data": [{"smiles": "CC1=C(/C=C/C(C)=C/C=C/C(C)=C/C(=O)Nc2ccc(O)cc2)C(C)(C)CCC1", "note": "[fenretinide]", "values": [{"measurement": "lesion growth", "value": "slower lesion growth"}]}]}
